Laboratory results from patent publication US9439899B2, “Cancer therapy using a combination of HSP90 inhibitors with topoisomerase I inhibitors” (Synta Pharmaceuticals Corp., priority 2011, dated 2016).

Tested on: HCT-116 colorectal cancer cells
Test: Cell viability (alamarBlue) assay, single agents and combinations, in HCT-116 colorectal cancer cells
Assay type: cell-based
Details: Homo sapiens; HCT-116 cells exposed to drug for 72 hr; 1.5-fold serial dilution; four parameter logistic fit; read-out: half maximal inhibitory concentration (IC50), cell viability
Procedure: Human HCT-116 colorectal cancer cells (CRC) were purchased from the American Type Culture Collection (Manassas, Va.) and grown in McCoy's 5a media (Sigma), following ATCC recommendations, in the presence of fetal bovine serum (10%), 2 mM L-glutamine and antibiotics (100 IU/ml penicillin and 100 μg/ml streptomycin, Sigma). Cells were maintained at 37° C., 5% CO2 atmosphere.
Cell viability was measured using the alamarBlue assay (Invitrogen). In brief, cells were plated in 96-well plates in triplicate at 5K cells per well and incubated at 37° C., 5% CO2 atmosphere for 24 hr prior to the addition of drug or vehicle (0.3% DMSO) to the culture medium. After 72 hr, 10 μl/well alamarBlue was added to the wells and incubated for an additional 3 hr at 37° C., 5% CO2 atmosphere. Fluorescence (560EX/590EM […]) was measured with a SpectraMax microplate reader (Molecular Devices) and the resulting data were used to calculate cell viability, normalized to vehicle control. […]
Combinations between ganetespib and irinotecan were then performed in HCT-116 cells concurrently based on the IC50 for each agent in matrix format with 54 combination pairs for each drug. The combined drugs, as well as each drug alone, were incubated with the cells for 3 days and the surviving fraction of cells relative to control was determined using the alamarBlue assay.

## CC(C)c1cc(-c2nnc(O)n2-c2ccc3c(ccn3C)c2)c(O)cc1O [ganetespib, 3-(2,4-DIHYDROXY-5- ISOPROPYL-PHENYL)-4-(1- METHYL-INDOL-5-YL)-5- HYDROXY-[1,2,4] TRIAZOLE]
  IC50: ~32 nM

## CCc1c2c(nc3ccc(OC(=O)N4CCC(N5CCCCC5)CC4)cc13)-c1cc3c(c(=O)n1C2)COC(=O)[C@]3(O)CC [irinotecan]
  IC50: ~2300 nM
